# Experimental data as given in patent US20230193336A1, “ENASIDENIB GLYCOSIDES AND METHODS OF TREATING DISEASES ASSOCIATED WITH ISOCITRATE DEHYDROGENASE (IDH) DYSFUNCTION” (Double Rainbow Biosciences Inc., priority 2020, published 2023).
# Where two headings read alike, the source gives them in different places.
# Assays:
# physchem = type: physicochemical
# Experimental: The water solubility of enasidenib and enasidenib-O-D-glucoside was investigated by suspending excess amounts of the two compounds in 200 μl of distilled water in a microcentrifuge tube at 25° C. for 12 h. Afterwards, each sample was centrifuged at 12,000×g for 20 min. The supernatant of each sample was then filtered through a 0.45-μm membrane filter and the concentration of the compound in the supernatant, which is defined as the water-soluble component, was measured by its absorbance at 254 nm using HPLC, and its absolute solubility was calculated in reference to the concentration-absorbance standard curve.
# [1] = in vivo; cited from earlier work
# [2] = 100 mg dose; cited from earlier work
# [3] = clinical trials; cited from earlier work
# UGT1A1 = target: T1, UGT1A1 (Homo sapiens, UniProt P22309); settings: side effect: abnormal bilirubin metabolism; cited from earlier work
# T1 sequence (P22309 26-533): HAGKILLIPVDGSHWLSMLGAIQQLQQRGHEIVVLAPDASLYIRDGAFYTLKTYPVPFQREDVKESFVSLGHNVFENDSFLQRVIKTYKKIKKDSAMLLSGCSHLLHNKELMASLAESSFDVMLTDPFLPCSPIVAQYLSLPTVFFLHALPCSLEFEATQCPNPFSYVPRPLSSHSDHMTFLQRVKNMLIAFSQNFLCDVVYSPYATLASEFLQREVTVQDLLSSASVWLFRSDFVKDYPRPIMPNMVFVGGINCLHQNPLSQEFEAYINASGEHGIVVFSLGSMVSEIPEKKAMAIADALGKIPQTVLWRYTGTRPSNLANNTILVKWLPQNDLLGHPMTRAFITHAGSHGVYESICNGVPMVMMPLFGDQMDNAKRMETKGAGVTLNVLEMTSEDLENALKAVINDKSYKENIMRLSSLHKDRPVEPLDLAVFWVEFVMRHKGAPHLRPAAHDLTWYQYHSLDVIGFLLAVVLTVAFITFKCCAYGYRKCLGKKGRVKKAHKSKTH
# [4] = test system: mouse xenograft models of AML; settings: cited from earlier work
# [5] = test system: IDH2 R140 and R172 mutant homodimers or heterodimers; settings: cited from earlier work
# [6] = test system: AML patients with an IDH2 mutation; settings: cited from earlier work
# human AML patients = settings: cited from earlier work
# [7] = test system: cancer cell lines containing endogenous or exogenously expressed mutant IDH2; settings: cancer cell lines with endogenous or exogenously expressed mutant IDH2; cited from earlier work
# cell culture assays = settings: cited from earlier work
# [8] = cited from earlier work
smiles,measurement,setting,value
CC(C)(CNc1nc(Nc2ccnc(C(F)(F)F)c2)nc(-c2cccc(C(F)(F)F)n2)n1)OC1O[C@H](CO)[C@@H](O)[C@H](O)[C@H]1O (stereo partly drawn) [enasidenib-O-D-glucoside],water solubility,physchem,40 µg/mL
same,water solubility relative to enasidenib,physchem,7 times
C[C@@H](Nc1nc(N[C@H](C)C(F)(F)F)nc(-c2cccc(Cl)n2)n1)C(F)(F)F [AG-881],blood-brain barrier penetration,[1],can penetrate the blood-brain barrier
"CC(C)(O)CNc1nc(Nc2ccnc(C(F)(F)F)c2)nc(-c2cccc(C(F)(F)F)n2)n1 [enasidenib, Enasidenib]",oral bioavailability,[2],57%
same,patients who completely discontinued enasidenib,[3],17%
same,patients who had to stop taking the drug as a result of adverse events,[3],43%
same,patients with serious adverse events,[3],approximately 77%
same,solubility at 12 h,"physchem; 25 °C, water, thermodynamic from solid",6 µg/mL
same,UGT1A1 inhibition,UGT1A1,inhibition of UGT1A1
same,2-HG concentration,[4],reduced the 2-HG concentration
same,lower inhibitory concentration for mutant IDH2 compared to the wild type IDH2,[5]; R140 and R172 mutant homodimers or heterodimers versus wild type IDH2,approximately 40 fold
same,inhibition kinetics,[5]; kinetics assays,slow on/slow off tight binding inhibition kinetics
same,AML patients with an IDH2 mutation who experienced complete remission,"[6]; human, in vivo",19.3%
same,overall response rate,"[6]; single therapeutic, AML and relapsed/refractory-AML patients with an IDH2 mutation",41%
same,2-HG concentration,human AML patients,reduced the 2-HG concentration
same,2-HG concentration,[7],reduced the 2-HG concentration
same,differentiation,cell culture assays,induced differentiation
same,aqueous solubility,[8],less than 74 μg/mL
same,aqueous solubility,[8]; pH 7.4 (Yen et al. 2017),23 µM
